Test results reported in US12559718B2, “Diagnostic methods for t cell therapy” (Kite Pharma, Inc., priority 2015, dated 2026).

Assay: Phase 1/2 trial of anti-CD19 CAR+ T cells: adverse events and dose-limiting toxicity
Type: in vivo, human
Conditions: 1 subject, onset at day 110 post anti-CD19 CAR+ T cell infusion
Description: Subjects who signed informed consent and met study eligibility were enrolled into the study and underwent leukapheresis to obtain PBMCs for the production of anti-CD19 CAR+ T cells. […] Some subjects were then treated with interleukin-2 (Group 1 only), 3 hours after the anti-CD19 CAR+ T cell infusion. Retreatment of a second dose of anti-CD19 CAR+ T cells was allowed if there was a response of partial response (PR) or complete response (CR) after the first infusion and then subsequent disease progression.
Three groups of subjects were enrolled. […] These subjects also received high dose interleukin-2 (IL-2) at 720,000 IU/kg (every 8 hours until 15 doses or toxicity precluded additional doses) after the anti-CD19 CAR+ T cell administration to stimulate their proliferation.
Group 3 includes 11 subjects, who have received a reduced conditioning regimen of cyclophosphamide at 300 mg/m^2 and fludarabine at 30 mg/m^2, both given for 3 concurrent days with no IL-2.
Overall safety summaries include all 32 treated subjects.

Nc1nc(F)nc2c1ncn2[C@@H]1O[C@H](CO)[C@@H](O)[C@@H]1O [fludarabine]
Neurologic adverse event considered by the investigator related to fludarabine: grade 4 myelitis
